Key:
VEGFR-2 = VEGFR-2 (Homo sapiens, UniProt P35968); assay: VEGFR-2 kinase inhibitory assay; format: biochemical
MCF-7 = assay: MTT anti-proliferative assay, MCF-7; format: cell-based; conditions: for IC50: Homo sapiens, MCF7, 72 h, read-out: IC50 MCF-7; for folds toxic in MCF-7 than in ordinary VERO cells: MCF-7 versus VERO
EGFR^T790M = EGFR^T790M (Homo sapiens, UniProt P00533, T790M); assay: EGFR^T790M kinase inhibitory assay; format: biochemical
A549 = assay: MTT anti-proliferative assay, A549; format: cell-based; conditions: for IC50: Homo sapiens, A549, 72 h, read-out: IC50 A549; for folds toxic in A549 than in ordinary VERO cells: A549 versus VERO
HepG2 = assay: MTT anti-proliferative assay, HepG2; format: cell-based; conditions: for IC50: Homo sapiens, HepG2, 72 h, read-out: IC50 HepG2; for fold times more toxic in HepG-2 than in VERO normal cells: HepG-2 versus VERO
HCT-116 = assay: MTT anti-proliferative assay, HCT-116; format: cell-based; conditions: for IC50: Homo sapiens, HCT-116, 72 h, read-out: IC50 HCT116; for folds toxic in HCT-116 than in normal VERO cells: HCT-116 versus VERO

Sequence of EGFR^T790M (P00533 25-1210 T790M): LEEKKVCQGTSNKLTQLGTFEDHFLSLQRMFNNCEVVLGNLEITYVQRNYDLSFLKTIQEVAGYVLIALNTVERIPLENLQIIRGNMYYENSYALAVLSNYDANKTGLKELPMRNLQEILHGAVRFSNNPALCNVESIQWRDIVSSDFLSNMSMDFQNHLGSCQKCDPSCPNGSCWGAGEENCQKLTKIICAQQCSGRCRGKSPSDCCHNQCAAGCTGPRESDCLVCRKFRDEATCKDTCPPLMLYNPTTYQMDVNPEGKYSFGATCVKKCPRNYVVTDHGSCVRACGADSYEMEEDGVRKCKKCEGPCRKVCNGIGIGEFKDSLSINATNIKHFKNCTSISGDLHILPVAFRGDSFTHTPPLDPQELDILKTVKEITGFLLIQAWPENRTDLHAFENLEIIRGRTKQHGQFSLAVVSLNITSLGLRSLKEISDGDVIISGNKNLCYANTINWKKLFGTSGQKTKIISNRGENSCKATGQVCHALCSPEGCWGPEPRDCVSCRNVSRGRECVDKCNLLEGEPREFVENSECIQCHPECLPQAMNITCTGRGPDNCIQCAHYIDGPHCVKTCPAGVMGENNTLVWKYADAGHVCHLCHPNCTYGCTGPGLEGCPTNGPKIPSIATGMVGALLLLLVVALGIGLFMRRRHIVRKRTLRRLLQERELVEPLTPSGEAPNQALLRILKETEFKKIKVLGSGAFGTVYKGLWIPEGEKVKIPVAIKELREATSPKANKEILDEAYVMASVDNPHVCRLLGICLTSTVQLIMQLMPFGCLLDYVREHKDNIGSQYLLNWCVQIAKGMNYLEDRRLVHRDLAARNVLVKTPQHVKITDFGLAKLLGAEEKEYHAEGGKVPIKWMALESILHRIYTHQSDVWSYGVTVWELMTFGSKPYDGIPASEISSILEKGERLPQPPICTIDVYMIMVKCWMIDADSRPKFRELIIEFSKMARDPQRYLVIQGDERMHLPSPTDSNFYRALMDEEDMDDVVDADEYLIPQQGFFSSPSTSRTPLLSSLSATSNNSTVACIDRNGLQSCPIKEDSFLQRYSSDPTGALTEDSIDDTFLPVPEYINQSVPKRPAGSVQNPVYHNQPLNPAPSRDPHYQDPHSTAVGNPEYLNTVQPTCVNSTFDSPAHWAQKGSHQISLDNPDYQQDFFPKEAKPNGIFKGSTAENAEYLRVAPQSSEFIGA
Sequence of VEGFR-2 (P35968 20-1356): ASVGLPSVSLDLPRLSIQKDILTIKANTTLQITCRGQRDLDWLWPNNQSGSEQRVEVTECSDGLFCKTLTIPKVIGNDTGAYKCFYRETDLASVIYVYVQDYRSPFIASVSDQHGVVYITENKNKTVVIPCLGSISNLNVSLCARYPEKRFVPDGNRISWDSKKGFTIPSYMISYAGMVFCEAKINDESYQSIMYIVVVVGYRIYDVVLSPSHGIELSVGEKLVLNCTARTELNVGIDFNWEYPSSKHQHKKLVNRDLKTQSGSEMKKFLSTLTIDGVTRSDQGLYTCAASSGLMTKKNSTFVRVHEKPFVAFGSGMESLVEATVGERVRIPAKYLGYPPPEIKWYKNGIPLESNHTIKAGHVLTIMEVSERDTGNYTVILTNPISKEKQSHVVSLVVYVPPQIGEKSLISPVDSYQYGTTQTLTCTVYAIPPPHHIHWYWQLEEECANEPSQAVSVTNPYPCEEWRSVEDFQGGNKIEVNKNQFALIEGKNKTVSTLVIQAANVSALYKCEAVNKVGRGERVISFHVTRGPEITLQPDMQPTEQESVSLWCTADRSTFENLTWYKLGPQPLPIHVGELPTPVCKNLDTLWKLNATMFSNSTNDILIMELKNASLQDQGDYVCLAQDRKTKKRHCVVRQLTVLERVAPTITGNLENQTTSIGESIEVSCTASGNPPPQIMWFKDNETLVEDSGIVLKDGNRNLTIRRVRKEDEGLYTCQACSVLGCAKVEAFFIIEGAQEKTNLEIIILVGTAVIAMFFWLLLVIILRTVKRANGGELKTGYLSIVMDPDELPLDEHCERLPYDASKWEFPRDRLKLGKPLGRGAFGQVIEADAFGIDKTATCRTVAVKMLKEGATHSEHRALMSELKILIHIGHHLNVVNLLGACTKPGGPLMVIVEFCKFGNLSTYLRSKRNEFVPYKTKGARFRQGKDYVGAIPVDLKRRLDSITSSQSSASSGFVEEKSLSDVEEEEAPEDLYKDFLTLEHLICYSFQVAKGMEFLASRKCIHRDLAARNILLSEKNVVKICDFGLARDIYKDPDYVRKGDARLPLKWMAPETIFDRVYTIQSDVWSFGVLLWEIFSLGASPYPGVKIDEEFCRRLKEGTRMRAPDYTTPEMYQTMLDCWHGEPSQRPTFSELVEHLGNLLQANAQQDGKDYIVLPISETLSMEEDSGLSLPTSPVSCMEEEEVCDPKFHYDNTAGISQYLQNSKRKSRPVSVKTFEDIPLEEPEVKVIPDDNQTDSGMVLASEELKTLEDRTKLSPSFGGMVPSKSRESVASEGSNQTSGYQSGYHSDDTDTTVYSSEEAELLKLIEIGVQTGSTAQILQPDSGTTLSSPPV

SMILES	IC50 (VEGFR-2) [µM]	IC50 (MCF-7) [µM]	IC50 (EGFR^T790M) [µM]	IC50 (A549) [µM]	IC50 (HepG2) [µM]	IC50 (HCT-116) [µM]	folds toxic in MCF-7 than in ordinary VERO cells (MCF-7) [folds]	folds toxic in A549 than in ordinary VERO cells (A549) [folds]	fold times more toxic in HepG-2 than in VERO normal cells (HepG2) [fold]	folds toxic in HCT-116 than in normal VERO cells (HCT-116) [folds]
NC1=NOC(=O)C1=NNc1ccc(N=Nc2ccccc2)cc1 [Compound 3, 3-Amino-4-{2-[4-(phenyldiazenyl)phenyl]hydrazono}isoxazol-5(4H)-one]	3.25 ± 0.5	17.6 ± 4.5	2.1 ± 0.25	25.5 ± 3.5	19 ± 4.4	16.8 ± 3.7	–	–	–	–
NC1=NNC(=O)C1=NNc1ccc(N=Nc2ccccc2)cc1 [Compound 4, 5-Amino-4-{2-[4-(phenyldiazenyl)phenyl]hydrazono}-2,4-dihydro-3H-pyrazol-3-one]	1.85 ± 0.1	11.3 ± 3.3	1.2 ± 0.35	10.8 ± 1.5	10.6 ± 3	11.3 ± 3.1	–	–	–	–
NC1=NN(c2ccccc2)C(=O)C1=NNc1ccc(N=Nc2ccccc2)cc1 [Compound 5, 5-Amino-2-phenyl-4-{2-[4-(phenyldiazenyl)phenyl]hydrazono}-2,4-dihydro-3H-pyrazol-3-one]	1.25 ± 0.5	6.98 ± 1.1	0.4 ± 0.35	6.5 ± 1.5	7.8 ± 0.7	8.12 ± 0.9	6.21	8.86	5.72	5.53
NC1=NN(c2ccc([N+](=O)[O-])cc2[N+](=O)[O-])C(=O)C1=NNc1ccc(N=Nc2ccccc2)cc1 [Compound 6, 5-Amino-2-(2,4-dinitrophenyl)-4-{2-[4-(phenyldiazenyl)phenyl]hydrazono}-2,4-dihydro-3H-pyrazol-3-one]	1.6 ± 0.5	9.11 ± 2.7	0.35 ± 0.15	5.88 ± 0.5	8.17 ± 2.6	10.1 ± 2.9	4.59	6.54	5.49	4.47
NC(=O)N1N=C(N)C(N=Nc2ccc(N=Nc3ccccc3)cc2)C1=O (stereo not drawn) [Compound 7, 3-Amino-5-oxo-4-{[4-(phenyldiazenyl)phenyl]diazenyl}-4,5-dihydro-1H-pyrazole-1-carboxamide]	2.35 ± 0.2	14.2 ± 3.5	0.9 ± 0.25	8.5 ± 0.5	15.6 ± 3.5	17.5 ± 4	–	–	–	–
N#CC(=NNc1ccc(N=Nc2ccccc2)cc1)c1nc(=S)[nH][nH]1 [Compound 9, N-[4-(Phenyldiazenyl)phenyl]-5-thioxo-2,5-dihydro-1H-1,2,4-triazole-3-carbohydrazonoyl-cyanide]	2 ± 0.1	13.8 ± 3	1.35 ± 0.15	12.2 ± 2.5	14.5 ± 2.8	16.8 ± 3.3	–	–	–	–
N#Cc1nn(-c2ccc(N=Nc3ccccc3)cc2)c(=S)n(-c2ccccc2)c1=O [Compound 10, 5-Oxo-4-phenyl-2-[4-(phenyldiazenyl)phenyl]-3-thioxo-2,3,4,5-tetrahydro-1,2,4-triazine-6-carbonitrile]	1.5 ± 0.1	7.28 ± 2.4	0.5 ± 0.25	7.35 ± 1.5	6.81 ± 1.9	9.23 ± 2.2	5.81	8.67	6.39	4.96
N#Cc1nn(-c2ccc(N=Nc3ccccc3)cc2)c(=S)[nH]c1=O [Compound 11, 5-Oxo-2-[4-(phenyldiazenyl)phenyl]-3-thioxo-2,3,4,5-tetrahydro-1,2,4-triazine-6-carbonitrile]	3.85 ± 0.5	39.2 ± 4.8	2.5 ± 0.35	30.2 ± 3.5	35.6 ± 4.8	37.9 ± 4.6	–	–	–	–
N#Cc1nn(-c2ccc(N=Nc3ccccc3)cc2)c(=O)[nH]c1=O [Compound 12, 3,5-Dioxo-2-[4-(phenyldiazenyl)phenyl]-2,3,4,5-tetrahydro-1,2,4-triazine-6-carbonitrile]	3.5 ± 0.5	30.2 ± 4.8	0.95 ± 0.35	9.25 ± 1.5	21.1 ± 4.9	22.5 ± 4.8	–	–	–	–
N#Cc1nn(-c2ccc(N=Nc3ccccc3)cc2)c(=N)[nH]c1=O [Compound 13, 3-Imino-5-oxo-2-[4-(phenyldiazenyl)phenyl]-2,3,4,5-tetrahydro-1,2,4-triazine-6-carbonitrile]	3.35 ± 0.5	23.1 ± 3.8	1.5 ± 0.15	15.5 ± 2.5	20.5 ± 4.2	20.1 ± 3.5	–	–	–	–
N#Cc1nn(-c2ccc(N=Nc3ccccc3)cc2)c(=N)n(S(=O)(=O)c2ccc(N)cc2)c1=O [Compound 14, 4-[(4-Aminophenyl)sulfonyl]-3-imino-5-oxo-2-[4-(phenyldiazenyl)phenyl]-2,3,4,5-tetrahydro-1,2,4-triazine-6-carbonitrile]	0.95 ± 0.1	6.37 ± 2.5	0.25 ± 0.15	5.15 ± 1.5	6.23 ± 2.3	8.44 ± 2.6	5.76	10.72	6.86	7.68
C#Cc1cccc(Nc2ncnc3cc(OCCOC)c(OCCOC)cc23)c1 [Erlotinib, reference compound]	–	8.2 ± 0.34	–	–	–	–	–	–	–	–
CNC(=O)c1cc(Oc2ccc(NC(=O)Nc3ccc(Cl)c(C(F)(F)F)c3)cc2)ccn1 [Sorafenib, reference compound]	–	–	–	–	4 ± 0.33	–	–	–	–	–

From article PMC10695193 (RSC Advances, 2023)
